Data set [1] relates to Human immunodeficiency virus 1. In words: Antiviral activity against HIV-1 clinical isolate R5-91US-4 infected in human CEMx174 5.25M7 cells assessed as reduction in p24 antigen level measured after 4 days by ELISA. The class given is functional, organism-based. The conditions noted are these: Human immunodeficiency virus 1, clinical isolate R5-91US-4, CEMx174 5.25M7, 96 h. For orientation: An ELISA detects its analyte on a solid surface through an enzyme-linked reagent.

The target in data set [2] is C-C chemokine receptor type 5 (Homo sapiens, UniProt P51681). In words: Antagonist activity at CCR5 (unknown origin) expressed in HEK293 cells co-expressing Galpha16 assessed as intracellular calcium change incubated for 60 mins by Fluo-4 AM calcium flux based FLIPR assay. It counts as functional, cell-based. For orientation: A change in cytosolic calcium serves as a functional read-out for many receptors and channels.
Chain of C-C chemokine receptor type 5 (P51681 whole entry): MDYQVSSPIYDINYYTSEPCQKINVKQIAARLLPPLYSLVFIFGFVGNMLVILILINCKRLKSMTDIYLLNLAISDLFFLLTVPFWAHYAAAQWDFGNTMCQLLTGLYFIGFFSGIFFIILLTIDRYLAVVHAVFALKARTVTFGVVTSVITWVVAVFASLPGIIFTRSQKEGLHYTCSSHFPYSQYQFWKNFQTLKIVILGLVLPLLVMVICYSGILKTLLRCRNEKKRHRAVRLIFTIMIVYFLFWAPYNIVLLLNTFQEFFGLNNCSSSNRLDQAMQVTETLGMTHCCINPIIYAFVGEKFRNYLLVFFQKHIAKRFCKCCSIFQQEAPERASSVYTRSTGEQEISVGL

For data set [3], the system named is Human immunodeficiency virus 1. In words: Antiviral activity against HIV-1 clinical isolate R5-J32228M4 infected in human CEMx174 5.25M7 cells assessed as reduction in p24 antigen level measured after 4 days by ELISA. The class given is functional, organism-based. The conditions noted are these: Human immunodeficiency virus 1, clinical isolate R5-J32228M4, CEMx174 5.25M7, 96 h.

For data set [4], the target named is Envelope glycoprotein gp160 (Human immunodeficiency virus 1) (UniProt Q72502). In words: Binding affinity to HIV1 GP41 using GP41 NHR derived N39 peptide assessed as change in entropy by isothermal titration calorimetry.
Data set [5] concerns Human immunodeficiency virus 1. In words: Antiviral activity against HIV-1 Bal-R5 infected in human CEMx174 5.25M7 cells assessed as reduction in p24 antigen level measured after 4 days by ELISA. It counts as functional, organism-based. The following applies: Human immunodeficiency virus 1, Bal-R5, CEMx174 5.25M7, 96 h.
In data set [6] the test system is Human immunodeficiency virus 1. In words: Antiviral activity against HIV-1 clinical isolate 97 TH-NP1525 infected in human CEMx174 5.25M7 cells assessed as reduction in p24 antigen level measured after 4 days by ELISA. The class given is functional, organism-based. The conditions noted are these: Human immunodeficiency virus 1, clinical isolate 97 TH-NP1525, CEMx174 5.25M7, 96 h.

The test system of data set [7] is Human immunodeficiency virus 1. In words: Antiviral activity against HIV-1 clinical isolate X4-89BZ167 infected in human CEMx174 5.25M7 cells assessed as reduction in p24 antigen level measured after 4 days by ELISA. It counts as functional, organism-based. The conditions noted are these: Human immunodeficiency virus 1, clinical isolate X4-89BZ167, CEMx174 5.25M7, 96 h.

Data set [8] has as its target Envelope glycoprotein gp160 (Human immunodeficiency virus 1) (UniProt Q72502). In words: Binding affinity to HIV1 GP41 using GP41 NHR derived N39 peptide assessed as change in enthalpy by isothermal titration calorimetry. On the technique in general: In ITC the heat of successive injections is recorded.
For data set [9] the target is unchanged. In words: Binding affinity to HIV1 GP41 using GP41 NHR derived N39 peptide assessed as binding constant by isothermal titration calorimetry.
For data set [10], the system named is Human immunodeficiency virus 1. In words: Antiviral activity against HIV-1 clinical isolate X4-92UG024 infected in human CEMx174 5.25M7 cells assessed as reduction in p24 antigen level measured after 4 days by ELISA. It counts as functional, organism-based. The following applies: Human immunodeficiency virus 1, clinical isolate X4-92UG024, CEMx174 5.25M7, 96 h.

Data set [11] can be described thus: Proteolytic stability in rat kidney incubated upto 240 mins by RP-UHPLC analysis. It counts as ADME, tissue-based. The following applies: 4 h.
The target in data set [12] is Envelope glycoprotein gp160 (Human immunodeficiency virus 1) (UniProt Q72502). In words: Binding affinity to HIV1 GP41 using GP41 NHR derived N39 peptide assessed as melting temperature incubated for 30 mins by circular dichroism spectroscopy.
Data set [13] in a line: Proteolytic stability in rat liver assessed as parent compound remaining incubated for 4 hrs by RP-UHPLC analysis. The following applies: read-out: Stability. It counts as ADME, tissue-based.
A short description of data set [14]: Proteolytic stability in rat plasma assessed as parent compound remaining incubated for 4 hrs by RP-UHPLC analysis. It counts as ADME, cell-free. The following applies: read-out: Stability.
Data set [15] concerns the target Envelope glycoprotein gp160 (Human immunodeficiency virus 1) (UniProt Q72502). In words: Binding affinity to HIV1 GP41 using GP41 NHR derived N39 peptide at 100 uM incubated for 30 mins by PAGE gel electrophoresis analysis.

Activity calls are given as the source filed them. No cut-off for these calls is given here. Side chains are listed from the residue outwards. Peptide text beside a SMILES is read from it. * marks the point of attachment. X2 = CC(=O)N1CCC(C(=O)N(CCCN2C3CCC2CC(NS(=O)(=O)c2ccc(C(=O)*)cc2)C3)c2ccc(C)c(Cl)c2)CC1; X1 = CC(=O)N1CCC(C(=O)N(CCCN2CCC(Cc3ccc(C(=O)*)cc3)CC2)c2ccc(C)c(Cl)c2)CC1; PEG12 = NCCOCCOCCOCCOCCOCCOCCOCCOCCOCCOCCOCCOCCC(=O)O; PEG4 = NCCOCCOCCOCCOCCC(=O)O

A word on the EC50: it is the concentration at which the effect is half-maximal. As a reminder, the IC50 is the concentration at which inhibition is half-maximal. Consider Ac-IEELIRAAQEQQRKNEEALREL-NH2, for which the EC50 in data set [1] is 275 nM; in data set [3], greater than 250 nM; in [5], 4.47 nM; in [6], 3.7 nM; in data set [7], 63.1 nM; in [10], 76.5 nM. Besides, the IC50 in data set [2] is greater than 10000 nM. The deltaS in [4] is -6.92 cal/mol/deg. Further, the deltaH in [8] is -1 10^4cal/mol. Besides, the K in [9] was 8.29 10^5/M.

With `CC[C@H](C)[C@H](NC(C)=O)C(=O)N[C@@H](CCC(=O)O)C(=O)N[C@@H](CCC(=O)O)C(=O)N[C@@H](CC(C)C)C(=O)N[C@H](C(=O)N[C@@H](CCCNC(=N)N)C(=O)N[C@@H](C)C(=O)N[C@@H](C)C(=O)N[C@@H](CCC(N)=O)C(=O)N[C@@H](CCC(=O)O)C(=O)N[C@@H](CCC(N)=O)C(=O)N[C@@H](CCC(N)=O)C(=O)N[C@@H](CCCNC(=N)N)C(=O)N[C@@H](CCCCN)C(=O)N[C@@H](CC(N)=O)C(=O)N[C@@H](CCC(=O)O)C(=O)N[C@@H](CCC(=O)O)C(=O)N[C@@H](C)C(=O)N[C@@H](CC(C)C)C(=O)N[C@@H](CCCNC(=N)N)C(=O)N[C@@H](CCC(=O)O)C(=O)N[C@@H](CC(C)C)C(=O)N[C@@H](CCCCNC(=O)CCOCCOCCOCCOCCOCCOCCOCCOCCOCCOCCOCCOCCNC(=O)c1ccc(CC2CCN(CCCN(C(=O)C3CCN(C(C)=O)CC3)c3ccc(C)c(Cl)c3)CC2)cc1)C(N)=O)[C@@H](C)CC` (Ac-IEELIRAAQEQQRKNEEALRELK([PEG12-X1])-NH2), in data set [11], the Stability entry was “Stable”. In addition, the Tm in data set [12] was determined as 56 °C. Moreover, the EC50 is 1.79 nM in data set [1]; 16.2 nM in [3]; 0.09 nM in [5]; 0.33 nM in data set [6]; 2.75 nM in data set [7]; 1.21 nM in data set [10]. The remaining at 4 h in data set [13] is greater than 72%; in [14], 100%. In addition, the IC50 in data set [2] came to 19.2 nM. The deltaS in data set [4] is -23.2 cal/mol/deg. The outcome in [15] was Active. Besides, the deltaH in data set [8] is -1.4 10^4cal/mol. The K in [9] was 2.1 10^5/M.

In the case of enfuvirtide, the remaining at 4 h in data set [13] came out at 45%. The EC50 was found to be 2.54 nM in data set [6], 48.2 nM in data set [7] and 24.6 nM in data set [10].

`CC[C@H](C)[C@H](NC(C)=O)C(=O)N[C@@H](CCC(=O)O)C(=O)N[C@@H](CCC(=O)O)C(=O)N[C@@H](CC(C)C)C(=O)N[C@H](C(=O)N[C@@H](CCCNC(=N)N)C(=O)N[C@@H](C)C(=O)N[C@@H](C)C(=O)N[C@@H](CCC(N)=O)C(=O)N[C@@H](CCC(=O)O)C(=O)N[C@@H](CCC(N)=O)C(=O)N[C@@H](CCC(N)=O)C(=O)N[C@@H](CCCNC(=N)N)C(=O)N[C@@H](CCCCN)C(=O)N[C@@H](CC(N)=O)C(=O)N[C@@H](CCC(=O)O)C(=O)N[C@@H](CCC(=O)O)C(=O)N[C@@H](C)C(=O)N[C@@H](CC(C)C)C(=O)N[C@@H](CCCNC(=N)N)C(=O)N[C@@H](CCC(=O)O)C(=O)N[C@@H](CC(C)C)C(=O)N[C@@H](CCCCNC(=O)CCOCCOCCOCCOCCOCCOCCOCCOCCOCCOCCOCCOCCNC(=O)c1ccc(S(=O)(=O)NC2CC3CCC(C2)N3CCCN(C(=O)C2CCN(C(C)=O)CC2)c2ccc(C)c(Cl)c2)cc1)C(N)=O)[C@@H](C)CC` (stereo partly specified) (Ac-IEELIRAAQEQQRKNEEALRELK([PEG12-X2])-NH2): the Stability entry in data set [11] is on record as “Stable”. Further, the Tm in data set [12] came to 56 °C. The EC50 in data set [1] was determined as 1.01 nM; in data set [3], 14.8 nM; in data set [5] it was 0.16 nM; in data set [6], 0.99 nM; in data set [7] it was 2.97 nM; in [10], 1.24 nM. In addition, in data set [13], the remaining at 4 h was greater than 72%. The IC50 in data set [2] was 10.3 nM. In addition, in data set [4], the deltaS was -27.3 cal/mol/deg. Also, the result in data set [15] was Active. Besides, in data set [8], the deltaH is -1.5 10^4cal/mol. Also, the K in [9] is 1.97 10^5/M.

For the compound `CC(=O)N1CCC(C(=O)N(CCCN2CCC(Cc3ccc(C(N)=O)cc3)CC2)c2ccc(C)c(Cl)c2)CC1`, the EC50 in data set [1] is 12.1 nM; in data set [3] it was 161 nM; in data set [5], 9.03 nM; in data set [6], greater than 300 nM; in data set [7] it was greater than 300 nM; in [10], greater than 300 nM. Further, the IC50 in data set [2] turned out to be 0.83 nM.

On to `CC[C@H](C)[C@H](NC(=O)[C@H](CCCCN)NC(=O)[C@H](CCC(N)=O)NC(=O)[C@H](CCC(=O)O)NC(=O)[C@H](Cc1c[nH]c2ccccc12)NC(C)=O)C(=O)N[C@@H](CCC(=O)O)C(=O)N[C@@H](CCC(=O)O)C(=O)N[C@@H](CC(C)C)C(=O)N[C@@H](CC(C)C)C(=O)N[C@@H](CCCCN)C(=O)N[C@@H](CCCCN)C(=O)N[C@@H](C)C(=O)N[C@@H](CCC(=O)O)C(=O)N[C@@H](CCC(=O)O)C(=O)N[C@@H](CCC(N)=O)C(=O)N[C@@H](CCC(N)=O)C(=O)N[C@@H](CCCCN)C(=O)N[C@@H](CCCCN)C(=O)N[C@@H](CC(N)=O)C(=O)N[C@@H](CCC(=O)O)C(=O)N[C@@H](CCC(=O)O)C(=O)N[C@@H](CCC(=O)O)C(=O)N[C@@H](CC(C)C)C(=O)N[C@@H](CCCCN)C(=O)N[C@@H](CCCCN)C(=O)N[C@@H](CC(C)C)C(=O)N[C@@H](CCC(=O)O)C(=O)N[C@@H](CCCCN)C(=O)N[C@@H](CCCCNC(=O)CCOCCOCCOCCOCCNC(=O)c1ccc(CC2CCN(CCCN(C(=O)C3CCN(C(C)=O)CC3)c3ccc(C)c(Cl)c3)CC2)cc1)C(N)=O` (Ac-WEQKIEELLKKAEEQQKKNEEELKKLEKK([PEG4-X1])-NH2), for which the concentration for a half-maximal effect (EC50) in [5] came to 1.11 nM.
